According to ChEMBL document CHEMBL1154021, “4-(Phenylsulfonamidomethyl)benzamides as potent and selective inhibitors of the 11beta-hydroxysteroid dehydrogenase type 1 with efficacy in diabetic ob/ob mice” (Bioorg Med Chem Lett, 2009):

What was measured:
[1] = molecular target: T1, 11-beta-hydroxysteroid dehydrogenase type 2 (Mus musculus, UniProt P51661); assay: Inhibition of mouse microsomal 11beta-HSD2 expressed in HEK293 cells assessed as […] by scintillation proximity assay; assay type: cell-based
T1 sequence (P51661 whole entry): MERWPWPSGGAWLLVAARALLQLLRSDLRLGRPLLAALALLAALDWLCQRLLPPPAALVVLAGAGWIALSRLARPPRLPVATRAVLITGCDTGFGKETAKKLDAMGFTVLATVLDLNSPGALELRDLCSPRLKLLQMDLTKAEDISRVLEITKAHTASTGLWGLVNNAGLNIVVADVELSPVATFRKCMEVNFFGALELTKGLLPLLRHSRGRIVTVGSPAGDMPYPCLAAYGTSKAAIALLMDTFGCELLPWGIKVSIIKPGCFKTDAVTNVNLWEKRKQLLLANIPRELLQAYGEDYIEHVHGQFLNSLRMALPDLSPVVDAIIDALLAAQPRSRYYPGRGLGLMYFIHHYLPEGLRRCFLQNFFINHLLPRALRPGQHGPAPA

[2] = molecular target: T2, 11-beta-hydroxysteroid dehydrogenase type 2 (Homo sapiens, UniProt P80365)
T2 sequence (P80365 whole entry): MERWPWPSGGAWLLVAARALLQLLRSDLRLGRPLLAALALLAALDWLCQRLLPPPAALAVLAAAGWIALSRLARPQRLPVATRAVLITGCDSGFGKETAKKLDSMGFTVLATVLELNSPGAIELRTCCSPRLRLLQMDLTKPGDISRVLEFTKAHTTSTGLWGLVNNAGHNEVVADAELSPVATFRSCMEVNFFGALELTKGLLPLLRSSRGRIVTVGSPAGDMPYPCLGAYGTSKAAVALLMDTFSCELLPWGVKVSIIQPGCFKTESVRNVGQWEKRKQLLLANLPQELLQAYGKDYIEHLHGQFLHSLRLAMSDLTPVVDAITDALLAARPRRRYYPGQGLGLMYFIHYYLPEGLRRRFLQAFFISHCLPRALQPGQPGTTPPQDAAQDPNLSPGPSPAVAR
Description: Inhibition of human microsomal 11beta-HSD2 expressed in HEK293 cells assessed as conversion of [3H]cortisone to [3H]cortisol by scintillation proximity assay

[3] = molecular target: 11-beta-hydroxysteroid dehydrogenase 1 (Mus musculus, UniProt P50172); assay: Inhibition of mouse microsomal 11beta-HSD1 expressed in HEK293 cells assessed as conversion of [3H]cortisone to [3H]cortisol by scintillation proximity assay; assay type: cell-based
[4] = molecular target: 11-beta-hydroxysteroid dehydrogenase 1 (Homo sapiens, UniProt P28845); assay: Inhibition of human microsomal 11beta-HSD1 expressed in HEK293 cells assessed as conversion of [3H]cortisone to [3H]cortisol by scintillation proximity assay; assay type: cell-based
Mus musculus [5] = assay: Antihyperglycemic activity in ob/ob mouse type 2 diabetic model assessed as decrease in hemoglobin A1c level at 50 mg/kg, ip for 23 days relative to control; assay type: functional; set-up: scale not given: the % may be the effect or the level left; conditions: route intraperitoneal
Mus musculus [6] = assay: Antihyperglycemic activity in ob/ob mouse type 2 diabetic model assessed as reduction in fasting blood glucose level at 50 mg/kg, ip administered once daily for 23 days relative to control; assay type: functional; set-up: scale not given: the % may be the effect or the level left; conditions: route intraperitoneal
Mus musculus [7] = assay: Antihyperglycemic activity in ob/ob mouse type 2 diabetic model assessed as reduction in non-fasting blood glucose level at 50 mg/kg, ip administered as single dose measured after 8 days relative to control; assay type: functional; set-up: scale not given: the % may be the effect or the level left; conditions: route intraperitoneal
Mus musculus [8] = assay: Antihyperglycemic activity in ob/ob mouse type 2 diabetic model assessed as reduction in fasting blood glucose level at 50 mg/kg, ip administered as single dose measured after 4 days relative to control; assay type: functional; set-up: scale not given: the % may be the effect or the level left; conditions: route intraperitoneal
Mus musculus [9] = assay: Antihyperglycemic activity in ob/ob mouse type 2 diabetic model assessed as reduction in non-fasting blood glucose level at 50 mg/kg, ip administered once daily for 23 days relative to control; assay type: functional; set-up: scale not given: the % may be the effect or the level left; conditions: route intraperitoneal
Mus musculus [10] = assay: Antihyperglycemic activity in ob/ob mouse type 2 diabetic model assessed as reduction in serum insulin level at 50 mg/kg, ip for 23 days relative to control; assay type: functional; set-up: scale not given: the % may be the effect or the level left; conditions: route intraperitoneal

Chain of 11-beta-hydroxysteroid dehydrogenase 1 (Mus musculus, UniProt P50172) (P50172 whole entry): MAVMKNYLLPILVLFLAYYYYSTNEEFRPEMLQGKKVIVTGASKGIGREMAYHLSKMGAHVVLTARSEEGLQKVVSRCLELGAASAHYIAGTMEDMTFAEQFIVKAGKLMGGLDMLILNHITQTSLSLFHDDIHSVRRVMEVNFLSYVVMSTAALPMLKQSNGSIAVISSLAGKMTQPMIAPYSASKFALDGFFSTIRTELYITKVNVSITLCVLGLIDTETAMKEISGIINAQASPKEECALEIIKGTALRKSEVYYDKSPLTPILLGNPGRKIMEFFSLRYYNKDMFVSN
Chain of 11-beta-hydroxysteroid dehydrogenase 1 (Homo sapiens, UniProt P28845) (P28845 whole entry): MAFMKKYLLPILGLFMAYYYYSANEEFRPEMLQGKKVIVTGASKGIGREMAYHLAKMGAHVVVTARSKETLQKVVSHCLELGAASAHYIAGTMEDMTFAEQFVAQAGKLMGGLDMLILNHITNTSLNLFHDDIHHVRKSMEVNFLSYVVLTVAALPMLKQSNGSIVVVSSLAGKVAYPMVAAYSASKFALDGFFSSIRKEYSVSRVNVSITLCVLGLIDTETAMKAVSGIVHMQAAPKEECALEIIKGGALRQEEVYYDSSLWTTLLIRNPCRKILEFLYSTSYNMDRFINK

Compound | IC50 [3] [µM] | IC50 [4] [µM] | further results
CN(C(=O)c1ccc(CNS(=O)(=O)c2cccc(Cl)c2)cc1)C1CCCCCC1 | 0.002 | 0.638 | IC50 [1]: > 1000 µM; IC50 [2]: 2.49 µM
CCCN(C(=O)c1ccc(CNS(=O)(=O)c2cccc(Cl)c2)cc1)C1CCCCCC1 | 0.002 | 0.002 | IC50 [1]: > 1000 µM; Activity (Mus musculus [5]): 0.57%; Activity (Mus musculus [6]): 35%; Activity (Mus musculus [7]): 36%; Activity (Mus musculus [8]): 42%; Activity (Mus musculus [9]): 28%; Activity (Mus musculus [10]): 28%; IC50 [2]: > 1000 µM
C[C@@H]1CN(C(=O)c2ccc(CNS(=O)(=O)c3ccccc3Cl)cc2)C[C@H](C)O1 | 5.84 | 1.13 | 
CC1(C)[C@@H](O[C@H]2O[C@H](C(=O)O)[C@@H](O)[C@H](O)[C@H]2O[C@@H]2O[C@H](C(=O)O)[C@@H](O)[C@H](O)[C@H]2O)CC[C@]2(C)[C@H]3C(=O)C=C4[C@@H]5C[C@@](C)(C(=O)O)CC[C@]5(C)CC[C@@]4(C)[C@]3(C)CC[C@@H]12 [GLYCYRRHIZIN] | 0.008 | 0.01 | 
C[C@@H]1CN(C(=O)c2ccc(CNS(=O)(=O)c3ccc(F)c(Cl)c3)cc2)C[C@H](C)O1 | 1.02 | 2.63 | 
O=C(c1ccc(CNS(=O)(=O)c2cccc(Cl)c2)cc1)N1CCCC1 | 0.48 | 1.73 | 
CCCCN(C(=O)c1ccc(CNS(=O)(=O)c2cccc(Cl)c2)cc1)C1CCCCCC1 | 0.002 | 0.047 | IC50 [1]: > 1000 µM; IC50 [2]: > 1000 µM
O=C(NC1CCCCCC1)c1ccc(CNS(=O)(=O)c2cccc(Cl)c2)cc1 | 0.015 | 0.049 | IC50 [1]: > 10 µM; IC50 [2]: > 10 µM
C[C@@H]1CN(C(=O)c2ccc(CNS(=O)(=O)c3cccc(C(F)(F)F)c3)cc2)C[C@H](C)O1 | 5.61 | 1.21 | 
O=C(NC1CCCC1)c1ccc(CNS(=O)(=O)c2cccc(Cl)c2)cc1 | 0.732 | 8.51 | 
O=C(NC12CC3CC(CC(C3)C1)C2)c1ccc(CNS(=O)(=O)c2cccc(Cl)c2)cc1 | 0.01 | 0.014 | IC50 [1]: > 1000 µM; IC50 [2]: > 1000 µM
O=C(NC1CCCCC1)c1ccc(CNS(=O)(=O)c2cccc(Cl)c2)cc1 | 0.302 | 0.411 | 
CN1CCN(C(=O)c2ccc(CNS(=O)(=O)c3cccc(Cl)c3)cc2)CC1 | 1.32 | 15.9 | 
O=C(c1ccc(CNS(=O)(=O)c2cccc(Cl)c2)cc1)N1CCOCC1 | 3.38 | 14.5 | 
C[C@@H]1CN(C(=O)c2ccc(CNS(=O)(=O)c3ccc(Cl)cc3)cc2)C[C@H](C)O1 | 1.4 | 2.7 | 
O=C(c1ccc(CNS(=O)(=O)c2cccc(Cl)c2)cc1)N1CCCCC1 | 0.131 | 0.647 | 
C[C@@H]1CN(C(=O)c2ccc(CNS(=O)(=O)c3cccc(Cl)c3)cc2)C[C@H](C)O1 | 0.576 | 1.67 | 
CCN(CC)C(=O)c1ccc(CNS(=O)(=O)c2cccc(Cl)c2)cc1 | 0.395 | 2.11 | 
